{
  "source": "patent US20240150755A1",
  "about": "“MODULATING REGULATORY T CELL FUNCTION IN AUTOIMMUNE DISEASE AND CANCER” (Salk Institute for Biological Studies, priority 2021, published 2024)",
  "key": {"Foxp3 target genes": {"tested_on": "Foxp3 target genes", "assay": "RNA-seq and gene set enrichment analysis in Treg cells", "type": "cell-based, mouse", "excerpt": "For large scale Treg culture, Tregs were first expanded in Rosa-Cas9/Foxp3^Thy1.1 mice by injecting IL-2:IL-2 antibody immune complex according protocol described in Webster et. al (J Exp Med 206, 751-760, 2009). Spleen and lymph node Treg cells were labeled with PE-conjugated Thy1.1 antibody and isolated by magnetic selection using anti-PE microbeads (Mitenyl #130-048-801). All isolated Treg cells were activated by plate bound anti-CD3 and anti-CD28 antibodies and cultured with X-VIVO® 20 media (LONZA #04-448Q) supplemented by 1× Pen/Strep, 1× Sodium pyruvate, 1× HEPES, 1× GlutaMax™, 55 μM beta-mercaptoethanol in the presence of IL-2 at 500 units/mL. For experiments with Brd9 degradation, Treg cells were treated at day 0 with 2.5 μM dBRD9 (Tocris #6606) and cultured for four days for RNA- and ChIP-seq and 0.16-10 μM treated at day 0 and cultured dBRD9 for four days for Foxp3 MFI, cell viability and cell proliferation assays. Live cells were enriched by Ficoll-Paque® 1.084 (GE Health 17-5446-02) for RNA-seq and ChIP-seq.\nRNA from 1-3×10^6 cells was extracted and purified with TRIzol™ reagent (Thermo Fisher) according to manufacturer's instructions. RNA-seq libraries were prepared using Illumina® TruSeq® Stranded mRNA kit following manufacturer's instructions with 5 μg of input RNA.\nSingle-end 50 bp reads were aligned to the mouse genome mm10 using STAR alignment tool (V2.5) (Dobin et al., Bioinformatics 29:15-21, 2013). RNA expression was quantified as raw integer counts using analyzeRepeats.pl in HOMER (Heinz et al., Mol Cell 38:576-589, 2010) using the following parameters: -strand both -count exons -condenseGenes -noadj. To identify differentially expressed genes, getDiffExpression.pl in HOMER was used, which uses the DESeq2R package to calculate the biological variation within replicates. Cut-offs were set at log 2 FC=0.585 and FDR at 0.05 (Benjamin-Hochberg). Principal Component Analysis (PCA) was performed with the mean of transcript per million (TPM) values using Cluster 3.0 with the following filter parameters: at least one observation with absolute value equal or greater than two and gene vector of four. TPM values were log transformed then centered on the mean.\nGSEA software (Mootha et al., Nat Genet 34:267-273, 2003; Subramanian et al., PNAS 102:15545-15550, 2005) was used to perform the analyses with the following parameters: number of permutations=1000; enrichment statistic=weighted; and metric for ranking of genes=difference of classes (Input RNA-seq data was log-transformed). For GSEA analysis, input RNA-seq data contained the normalized log-transformed reads of the 1,325 differentially expressed genes (DEGs) in sgFoxp3/sgNT Treg cells. The compiled gene list included GSEA Gene Ontology, Immunological Signature, Curated Gene, and the up and down DEGs in sgBrd9/sgNT Treg cells.\nFor gene expression analysis in FIG. 42F, Foxp3 ChIP-seq tags were quantified at the union of sites bound by Foxp3 in sgNT and sgBrd9 using the annotatePeaks.pl command in HOMER with size-given and each site was annotated to a gene by mapping to the nearest TSS. Sites were ranked from least to largest Foxp3 ChIP-seq Log2FC in sgBrd9 vs sgNT and divided into quartiles. Gene expression for the genes in the top and bottom quartiles (Brd9-dependent and -independent, respectively) was then plotted using RNA-seq data from Treg cells transduced with sgBrd9, sgSmarcd1, or sgPbrm1 compared to sgNT. […]"}, "Rag1^−/− mice": {"tested_on": "Rag1^−/− mice", "assay": "Adoptive T cell transfer-induced colitis model", "type": "in vivo, mouse", "excerpt": "Treg cells were transduced by retrovirus expressing sgRNA targeting gene of interest, and cultured in X-VIVO® complete media and IL-2 (500 U/ml). Four days after transduction, the NGFR^+ transduced Treg cells were FACS sorted before transferred into recipient mice. To induce colitis, 2 million effector T cells (CD45.1^+CD4^+CD25^−CD45RB^hi) and 1 million sgRNA transduced Treg cells (CD45.2^+ CD4^+ Thy1.1^+ NGFR^+) were mixed together and transferred into Rag1^−/− recipient mice. The body weight of recipient mice was monitored weekly for signs of wasting symptoms. Mice were harvested 7 weeks after T cell transfer. Spleens were used for profiling immune cell populations by FACS. Colons were collected for histopathological analysis.\nHistopathological analysis was performed in a blinded manner and scored using the following criteria: eight parameters were used, including (i) the degree of inflammatory infiltrate in the LP (0-3); (ii) Goblet cell loss (0-2); (iii) reactive epithelial hyperplasia/atypia with nuclear changes (0-3); (iv) the number of IELs in the epithelial crypts (0-3); (v) abnormal crypt architecture (distortion, branching, atrophy, crypt loss) (0-3); (vi) number of crypt abscesses (0-2); (vii) mucosal erosion to frank ulcerations (0-2) and (viii) submucosal spread to transmural involvement (0-2). The severity of lesion was scored independently in 3 regions (proximal, middle and distal colon) over a maximal score of 20. The overall colitis score was based as the average of each regional score (maximal score of 20)."}},
  "data": [
    {"substance": "sgBrd9: sgRNA targeting Brd9, ATTAACCGGTTTCTCCCGGG (SEQ ID NO: 12) (expressed or natural sequence)", "values": [
      {"measurement": "enrichment of increased/decreased genes among sgFoxp3 regulated genes (GSEA)", "setting": "Foxp3 target genes; sgBrd9/sgNT vs sgFoxp3/sgNT Treg cells", "result": "significantly enriched among genes that increase upon sgFoxp3 targeting"},
      {"measurement": "gene expression of Brd9-dependent vs Brd9-independent Foxp3 target genes", "setting": "Foxp3 target genes; sgRNA transduced Treg cells vs sgNT", "result": "significantly more affected"},
      {"measurement": "protection of recipient mice from body weight loss", "setting": "Rag1^−/− mice; co-transfer of Teff and sgRNA transduced Treg cells into Rag1^−/− mice", "result": "failed to protect recipients from losing weight"},
      {"measurement": "Foxp3^+ cell frequencies within the CD45.2^+CD4^+ transferred Treg population", "setting": "Rag1^−/− mice; end point of colitis model", "result": "reduced Foxp3^+ cell frequencies"},
      {"measurement": "colitis pathology", "setting": "Rag1^−/− mice; seven weeks after transfer, vs control Treg cells", "result": "significant colitis pathology"}
    ]}
  ]
}
